Data: the CheMixHub viscosity set

Assay: xn = mol fraction of the nth substance listed

COC(C)=O + O
298.15 K, 101 kPa
Conditions	viscosity [mPa·s]
x1 = 0.007776	0.9505
x1 = 0.01059	0.9711
x1 = 0.01834	1.021
x1 = 0.02351	1.05
x1 = 0.0294	1.087
x1 = 0.03745	1.118
x1 = 0.03898	1.127
x1 = 0.04509	1.146
x1 = 0.7729	0.4311
x1 = 0.8213	0.4084
x1 = 0.8787	0.3879
x1 = 0.9325	0.372

COC(C)=O + CCCCCO
298.15 K, 101.33 kPa
Conditions	viscosity [mPa·s]
x1 = 0.1014	2.381
x1 = 0.2082	1.64
x1 = 0.2879	1.292
x1 = 0.3821	1.011
x1 = 0.4786	0.823
x1 = 0.5766	0.69
x1 = 0.6788	0.575
x1 = 0.7517	0.505
x1 = 0.846	0.425

O=C(O)c1ccccc1 + CC(C)O
viscosity [mPa·s], 101 kPa
Conditions	x1 = 0.000601	x1 = 0.00181	x1 = 0.00276	x1 = 0.0042	x1 = 0.00508	x1 = 0.005992
298.15 K	2.579	2.574	2.569	2.562	2.559	2.556
308.15 K	1.932	1.927	1.922	1.916	1.914	1.912
318.15 K	1.496	1.49	1.486	1.481	1.479	1.477

COCCOC + Clc1ccccc1
298.15 K, 101 kPa
Conditions	viscosity [mPa·s]
x1 = 0.1219	0.721
x1 = 0.2379	0.685
x1 = 0.3487	0.649
x1 = 0.4543	0.611
x1 = 0.5554	0.573
x1 = 0.652	0.537
x1 = 0.7445	0.503
x1 = 0.8332	0.47
x1 = 0.9183	0.439

CCC(C)=O + CCC(C)O
viscosity [mPa·s], 101.3 kPa
Conditions	x2 = 0.1018	x2 = 0.1991	x2 = 0.2984	x2 = 0.397	x2 = 0.4966	x2 = 0.5968	x2 = 0.6985	x2 = 0.8007	x2 = 0.9003
298.15 K	0.423	0.461	0.511	0.578	–	0.804	1.005	1.332	1.896
308.15 K	0.38	0.415	0.452	0.505	0.576	0.677	0.824	–	1.426
318.15 K	0.344	0.369	0.402	0.445	0.501	0.578	0.686	0.849	1.099

COc1ccccc1N + CCC(=O)CC
viscosity [mPa·s], 100 kPa
Conditions	x1 = 0.0991	x1 = 0.1998	x1 = 0.2865	x1 = 0.3698	x1 = 0.4502	x1 = 0.5469	x1 = 0.6601	x1 = 0.7965	x1 = 0.8805
303.15 K	0.905	1.383	1.793	2.178	2.544	2.98	3.48	4.069	4.425
308.15 K	0.85	1.3	1.681	2.038	2.379	2.784	3.249	3.796	4.123
313.15 K	0.795	1.217	1.569	1.897	2.213	2.586	3.016	3.52	3.819

CCCCCCCC(=O)OCC + CC(C)CCO
100 kPa
Conditions	viscosity [mPa·s]
298.15 K, x1 = 0.3	1.885
308.15 K, x1 = 0.5001	1.315
313.15 K, x1 = 0.1	1.845

C1CCCCC1 + CC(C)O
303.15 K, 101.33 kPa
Conditions	viscosity [mPa·s]
x2 = 0.098	0.8169
x2 = 0.2003	0.8387
x2 = 0.3097	0.8861
x2 = 0.3997	0.9325
x2 = 0.4969	0.9831
x2 = 0.6009	1.063
x2 = 0.7025	1.174
x2 = 0.8004	1.313

OCCNCCO + CN1CCCC1=O
viscosity [mPa·s], 101 kPa
Conditions	293.15 K	303.15 K	313.15 K	323.15 K
x2 = 0.1012	457.2	211.6	100.2	38.39
x2 = 0.1941	–	103.8	43.29	27
x2 = 0.2002	222.2	106.2	60.47	24.87
x2 = 0.3004	85.35	47.36	28.26	17.59
x2 = 0.4003	53.69	31.19	19.32	12.45
x2 = 0.4024	–	31.82	15.04	10.25
x2 = 0.4998	27.76	16.74	10.6	7.513
x2 = 0.5851	–	16.32	7.42	6.32
x2 = 0.6003	16.21	9.543	5.75	3.961
x2 = 0.7	7.618	5.537	4.107	3.18
x2 = 0.7962	–	8.38	4.04	3.22
x2 = 0.7997	4.326	3.448	2.746	2.257
x2 = 0.8994	2.841	2.318	1.927	1.63

COc1ccccc1N + CCCCO
viscosity [mPa·s], 101 kPa
Conditions	x1 = 0.1085	x1 = 0.1811	x1 = 0.2605	x1 = 0.3474	x1 = 0.4771	x1 = 0.5867	x1 = 0.6665	x1 = 0.7526	x1 = 0.8949
303.15 K	2.547	2.719	2.91	3.123	3.448	3.729	3.943	4.18	4.597
308.15 K	2.267	2.431	2.611	2.813	3.12	3.388	3.59	3.815	4.205
313.15 K	2.036	2.194	2.365	2.554	2.846	3.103	3.297	3.516	3.895
318.15 K	1.83	1.981	2.143	2.322	2.598	2.847	3.036	3.247	3.609

COC(C)=O + CCCCCCCCCCCC
298.15 K, 101.3 kPa
Conditions	viscosity [mPa·s]
x1 = 0.09	1.243
x1 = 0.213	1.08
x1 = 0.3361	0.9577
x1 = 0.4514	0.8306
x1 = 0.5533	0.7377
x1 = 0.6236	0.6777
x1 = 0.6972	0.6144
x1 = 0.7671	0.557
x1 = 0.8924	0.4527
x1 = 0.9377	0.4171

CCCCCCOC(C)=O + CCCCCCO
viscosity [mPa·s], 101.33 kPa
Conditions	x1 = 0.0998	x1 = 0.2013	x1 = 0.3012	x1 = 0.4056	x1 = 0.4937	x1 = 0.6002	x1 = 0.7021	x1 = 0.8045	x1 = 0.9018
293.15 K	4.012	3.281	2.721	2.266	1.964	1.677	1.464	1.299	1.176
303.15 K	3.073	2.502	2.065	1.71	1.474	1.249	1.083	0.954	0.858
313.15 K	2.301	1.899	1.584	1.332	1.164	1.005	0.887	0.795	0.726
